We go through 28 compounds from patent US8334382B2, “Substituted biaryl piperazinyl-pyridine analogues” (Neurogen Corporation, priority 2004, dated 2012).

For this test, the target named is T1, human capsaicin receptor (Homo sapiens, UniProt Q8NER1).
T1 construct: expressed in transfected cells; host or cells: HEK293, stably transfected with pBK-CMV construct
The test is described as follows: Calcium mobilization assay, determination of antagonist activity. It counts as cell-based. The settings on record: capsaicin at EC50; cells expressing human capsaicin receptor; Example 6. In short, it runs like this:
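HEK293 cells stably expressing full-length human TRPV1, loaded with Fluo-3 AM in KRH buffer pH 7.4, preincubated with compound (final 1-5 µM) in the dark at room temperature for 0.5-6 h, then stimulated with capsaicin at its EC50. FLIPR fluorescence gave IC50 as concentration halving the capsaicin response.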
(Calcium flux is commonly read through the fluorescence of an indicator in the cells.)

Some results are limits rather than exact numbers.

T1 sequence (Q8NER1 whole entry): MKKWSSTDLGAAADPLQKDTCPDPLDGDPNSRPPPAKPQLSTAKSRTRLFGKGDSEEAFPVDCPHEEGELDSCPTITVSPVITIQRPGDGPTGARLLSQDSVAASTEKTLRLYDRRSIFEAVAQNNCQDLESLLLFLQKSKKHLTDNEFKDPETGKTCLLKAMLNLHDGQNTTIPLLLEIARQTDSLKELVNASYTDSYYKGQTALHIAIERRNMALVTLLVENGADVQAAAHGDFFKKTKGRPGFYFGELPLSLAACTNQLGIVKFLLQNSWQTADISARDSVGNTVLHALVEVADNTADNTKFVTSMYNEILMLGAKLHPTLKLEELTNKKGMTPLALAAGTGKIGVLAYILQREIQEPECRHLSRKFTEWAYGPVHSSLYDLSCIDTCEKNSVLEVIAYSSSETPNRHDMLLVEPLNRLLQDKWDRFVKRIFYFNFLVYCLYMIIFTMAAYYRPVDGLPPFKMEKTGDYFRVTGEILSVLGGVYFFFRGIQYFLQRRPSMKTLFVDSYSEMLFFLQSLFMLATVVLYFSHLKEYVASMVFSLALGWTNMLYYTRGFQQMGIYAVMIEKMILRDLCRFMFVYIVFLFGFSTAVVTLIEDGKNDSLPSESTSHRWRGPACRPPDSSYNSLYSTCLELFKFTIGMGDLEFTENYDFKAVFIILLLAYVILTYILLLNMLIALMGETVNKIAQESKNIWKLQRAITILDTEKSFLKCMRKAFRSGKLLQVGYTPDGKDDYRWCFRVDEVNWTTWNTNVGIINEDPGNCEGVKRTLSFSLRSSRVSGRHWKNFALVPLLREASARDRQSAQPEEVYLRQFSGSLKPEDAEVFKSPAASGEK

Broadly, the IC50 is the concentration that gives 50% inhibition. `Cc1ccc(-c2cc(N3CCN(c4ncc(C(=O)NCCO)cc4C)C[C@H]3C)nc(N3CCCC3C)n2)cn1` (stereo partly drawn) [Example 171, N-(2-Hydroxy-ethyl)-5-methyl-6-{3-(R)-methyl-4-[6-(6-methyl-pyridin-3-yl)-2-(2-methyl-pyrrolidin-1-yl)-pyrimidin-4-yl]-piperazin-1-yl}-nicotinamide]: the IC50 is ≤ 1 µM.
Then `CCOC(=O)c1cnc(N2CCN(c3cc(-c4ccncc4)nc(N4CCCC4C)n3)[C@H](C)C2)c(C)c1` (stereo partly drawn) [Example 60, 5-Methyl-6-{3-(R)-methyl-4-[2-(2-methyl-pyrrolidin-1-yl)-6-pyridin-4-yl-pyrimidin-4-yl] -piperazin-1-yl}-nicotinic acid ethyl ester], with ≤ 1 µM; and `Cc1cc(CO)cnc1N1CCN(c2cc(-c3ccc(F)cc3)nc(N3CCCC3C)n2)[C@H](C)C1` (stereo partly drawn) [Example 37, (6-{4-[6-(4-Fluoro-phenyl)-2-(2-methyl-pyrrolidin-1-yl)-pyrimidin-4-yl]-3-(R)-methyl-piperazin-1-yl}-5-methyl-pyridin-3-yl)-methanol], with ≤ 1 µM; and `Cc1cc(C(=O)NC2CCC2)cnc1N1CCN(c2cc(-c3ccc(F)cc3)nc(N3CCCC3C)n2)CC1` (stereo not shown) [Example 107, N-cyclobutyl-6-{4-[6-(4-fluorophenyl)-2-(2-methylpyrrolidin-1-yl)pyrimidin-4-yl]piperazin-1-yl}-5-methylnicotinamide], with ≤ 1 µM.
Then `Cc1cc(C(=O)O)cnc1N1CCN(c2cc(-c3ccc(F)cc3)nc(N3CCC[C@H]3C)n2)[C@H](C)C1` [Example 95, 6-{4-[6-(4-Fluoro-phenyl)-2-(2-(R)-methyl-pyrrolidin-1-yl)-pyrimidin-4-yl]-3-(R)-methyl-piperazin-1-yl}-5-methyl-nicotinic acid], with ≤ 1 µM; and `C[C@@H]1CN(c2ncc(C(=O)O)cc2Cl)CCN1c1cc(-c2ccccc2)nc(N2CCC[C@H]2CO)n1` [Example 163, 5-Chloro-6-{4-[2-(2-(S)-hydroxymethyl-pyrrolidin-1-yl)-6-phenyl-pyrimidin-4-yl]-3-(R)-methyl-piperazin-1-yl}-nicotinic acid], with ≤ 1 µM.
In the case of `Cc1cc(C(=O)O)cnc1N1CCN(c2cc(-c3ccc(F)c(Cl)c3)nc(N(C)C(C)C)n2)CC1` [Example 161, 6-{4-[6-(3-Chloro-4-fluoro-phenyl)-2-(isopropyl-methyl-amino)-pyrimidin-4-yl] - piperazin-1-yl}-5-methyl-nicotinic acid] it was ≤ 1 µM; in that of `CC1CCCN1c1nc(-c2cncc(Cl)c2)cc(N2CCN(c3ncc(CO)cc3Cl)C[C@H]2C)n1` (stereo partly drawn) [Example 49, (5-Chloro-6-{4-[6-(5-chloro-pyridin-3-yl)-2-(2-methyl-pyrrolidin-1-yl)-pyrimidin-4-yl]-3-(R)-methyl-piperazin-1-yl}-pyridin-3-yl)-methanol], ≤ 1 µM.
For `Cc1cc(C(=O)N2CCCC2C)cnc1N1CCN(c2cc(-c3ccc(F)cc3)nc(N3CCCC3C)n2)CC1` (stereo not shown) [Example 135, 4-(4-fluorophenyl)-6-(4-{3-methyl-5-[(2-methylpyrrolidin-1-yl)carbonyl]pyridin-2-yl}piperazin-1-yl)-2-(2-methylpyrrolidin-1-yl)pyrimidine], the IC50 was ≤ 1 µM.
For `CCOC(=O)c1cnc(N2CCN(c3cc(-c4cccc(C)c4)nc(N4CCCC4C)n3)CC2)c(C)c1` (stereo not shown) [Example 55, 5-Methyl-6-{4-[2-(2-methyl-pyrrolidin-1-yl)-6-m-tolyl-pyrimidin-4-yl]-piperazin-1-yl}-nicotinic acid ethyl ester], the IC50 was ≤ 1 µM.
Regarding `CC1CCCN1c1nc(-c2ccc(F)c(Cl)c2)cc(N2CCN(c3ncc(C(N)=O)cn3)CC2)n1` (stereo not shown) [Example 97, 2-{4-[6-(3-Chloro-4-fluoro-phenyl)-2-(2-methyl-pyrrolidin-1-yl)-pyrimidin-4-yl]-piperazin-1-yl}-pyrimidine-5-carboxylic acid amide], the IC50 was ≤ 1 µM.
Then `Cc1cc(C(=O)O)cnc1N1CCN(c2cc(-c3ccccc3)nc(N3CCCC3C)n2)[C@H](C)C1` (stereo partly drawn) [Example 68, 5-Methyl-6-{3-(R)-methyl-4-[2-(2-methyl-pyrrolidin-1-yl)-6-phenyl-pyrimidin-4-yl]-piperazin-1-yl}-nicotinic acid], with ≤ 1 µM.
Then `Cc1cc(OCCO)cnc1N1CCN(c2cc(-c3ccc(F)c(Cl)c3)nc(N3CCC[C@H]3C)n2)[C@H](C)C1` [Example 182, 2-{[6-((3R)-4-{6-(3-chloro-4-fluorophenyl)-2-[(2R)-2-methyl-1-pyrrolidinyl]-4-pyrimidinyl}-3-methyl-1-piperazinyl)-5-methyl-3-pyridinyl]oxy}ethanol], with ≤ 1 µM.
Then `Cc1cccc(-c2cc(N3CCN(c4ncc(C(=O)O)cc4C)C[C@H]3C)nc(N3CCCC3C)n2)c1` (stereo partly drawn) [Example 69, 5-Methyl-6-{3-(R)-methyl-4-[2-(2-methyl-pyrrolidin-1-yl)-6-m-tolyl-pyrimidin-4-yl]-piperazin-1-yl}-nicotinic acid], with ≤ 1 µM.
For `Cc1ccc(-c2cc(N3CCN(c4ncc(C(=O)O)cc4C)C[C@H]3C)nc(N3CCCC3C)n2)cc1` (stereo partly drawn) [Example 168, 5-Methyl-6-{3-(R)-methyl-4-[2-(2-methyl-pyrrolidin-1-yl)-6-p-tolyl-pyrimidin-4-yl]-piperazin-1-yl}-nicotinic acid], the IC50 is ≤ 1 µM.
Regarding `CC(=O)NC1CCN(C(=O)c2cnc(N3CCN(c4cc(-c5ccc(F)cc5)nc(N5CCCC5C)n4)CC3)c(C)c2)C1` (stereo not drawn) [Example 140, N-{l-[(6-{4-[6-(4-fluorophenyl)-2-(2-methylpyrrolidin-1-yl)pyrimidin-4-yl]piperazin-1-yl}-5-methylpyridin-3-yl)carbonyl]pyrrolidin-3-yl}acetamide], the IC50 is ≤ 1 µM.
Take `CC1CCCN1c1nc(-c2ccc(F)c(Cl)c2)cc(N2CCN(c3ncc(CN(C)C)cc3Cl)CC2)n1` (stereo not drawn) [Example 19, (5-Chloro-6-{4-[6-(3-chloro-4-fluoro-phenyl)-2-(2-methyl-pyrrolidin-l-yl)-pyrimidin-4-yl]-piperazin-1-yl}-pyridin-3-ylmethyl)-dimethyl-amine]: the IC50 is ≤ 1 µM.
Then `Cc1cc(C(N)=O)cnc1N1CCN(c2cc(-c3ccncc3)nc(N3CCCC3C)n2)CC1` (stereo not shown) [Example 89, 5-Methyl-6-{4-[2-(2-methyl-pyrrolidin-1-yl)-6-pyridin-4-yl-pyrimidin-4-yl]-piperazin-1-yl}-nicotinamide], with ≤ 1 µM; and `Cc1cc(C#N)cnc1N1CCN(c2cc(-c3ccc(F)cc3)nc(N3CCC[C@H]3C)n2)[C@H](C)C1` [Example 188, 6-((3R)-4-{6-(4-fluorophenyl)-2-[(2R)-2-methyl-1-pyrrolidinyl]-4-pyrimidinyl}-3-methyl-1-piperazinyl)-5-methylnicotinonitrile], with ≤ 1 µM.
Consider `COc1ccc(CNC(=O)c2cnc(N3CCN(c4cc(-c5ccc(F)cc5)nc(N5CCCC5C)n4)CC3)c(C)c2)cc1` (stereo not shown) [Example 115, 6-{4-[6-(4-fluorophenyl)-2-(2-methylpyrrolidin-1-yl)pyrimidin-4-yl]piperazin-1-yl}-N-(4-methoxybenzyl)-5-methylnicotinamide], for which the IC50 is ≤ 1 µM.
With `Cc1cccc(-c2cc(N3CCN(c4ncc(C(=O)O)cc4Cl)C[C@H]3C)nc(N3CCCC3C)n2)c1` (stereo partly drawn) [Example 51, 5-Chloro-6-{3-(R)-methyl-4-[2-(2-methyl-pyrrolidin-1-yl)-6-m-tolyl-pyrimidin-4-yl]-piperazin-1-yl}-nicotinic acid], the half-inhibitory concentration (IC50) is ≤ 1 µM.
In the case of `CCOC(=O)c1cccnc1N1CCN(c2cc(-c3ccc(F)c(Cl)c3)nc(N3CCOCC3)n2)CC1` [Example 1, 2-{4-[6-(3-Chloro-4-fluoro-phenyl)-2-morpholin-4-yl-pyrimidin-4-yl]-piperazin-1-yl}-nicotinic acid ethyl ester] it was ≤ 1 µM; in that of `CC1CCCN1c1nc(-c2ccc(F)cc2)cc(N2CCN(c3ncc(CO)cc3Cl)C[C@H]2C)n1` (stereo partly drawn) [Example 31, (5-Chloro-6-{4-[6-(4-fluoro-phenyl)-2-(2-methyl-pyrrolidin-1-yl)-pyrimidin-4-yl]-3-(R)-methyl-piperazin-1-yl}-pyridin-3-yl)-methanol], ≤ 1 µM.
Consider `CCOC(=O)c1cnc(N2CCN(c3cc(-c4ccncc4)nc(N4CCCC4C)n3)CC2)c(C)c1` (stereo not shown) [Example 56, 5-Methyl-6-{4-[2-(2-methyl-pyrrolidin-1-yl)-6-pyridin-4-yl-pyrimidin-4-yl]-piperazin-1-yl}-nicotinic acid ethyl ester], for which the IC50 is ≤ 1 µM.
Turning to `C[C@@H]1CN(c2ncc(CCN(C)C)cc2Cl)CCN1c1cc(-c2ccc(F)c(Cl)c2)nc(N2CCC[C@H]2C)n1` [Example 186, 2-[5-chloro-6-((3R)-4-{6-(3-chloro-4-fluorophenyl)-2-[(2R)-2-methylpyrrolidin-1-yl]pyrimidin-4-yl}-3-methylpiperazin-1-yl)pyridin-3-yl]-N,N-dimethylethanamine], the IC50 was ≤ 1 µM.
On to `C[C@@H]1CN(c2ncc(C(=O)O)cc2Cl)CCN1c1cc(-c2ccc(F)cc2)nc(N2CCOC[C@H]2C)n1` [Example 104, 5-Chloro-6-{4-[6-(4-fluoro-phenyl)-2-(3-(R)-methyl-morpholin-4-yl)-pyrimidin-4-yl]-3-(R)-methyl-piperazin-1-yl}-nicotinic acid], for which the IC50 is ≤ 1 µM.
Then `Cc1cc(OCCN(C)C)cnc1N1CCN(c2cc(-c3ccc(F)c(Cl)c3)nc(N3CCCC3C)n2)CC1` (stereo not shown) [Example 6, [2-(6-{4-[6-(3-Chloro-4-fluoro-phenyl)-2-(2-methyl-pyrrolidin-1-yl)-pyrimidin-4-yl]-piperazin-1-yl}-5-methyl-pyridin-3-yloxy)-ethyl]-dimethyl-amine], with ≤ 1 µM.
In the case of `C[C@@H]1CCCN1c1nc(-c2ccc(F)cc2)cc(N2CCN(c3ncc(C(=O)O)cc3Cl)CC2)n1` [Example 92, 5-Chloro-6-{4-[6-(4-fluoro-phenyl)-2-(2-(R)-methyl-pyrrolidin-1-yl)-pyrimidin-4-yl]-piperazin-1-yl}-nicotinic acid] it was ≤ 1 µM.
